Where a SMILES comes first, the peptide text is derived from it. [ ]: non-standard residue; d: D form. The star is where a group is joined. ξ: configuration not given here. NMeW = CN[C@@H](Cc1c[nH]c2ccccc12)C(=O)O; Benzoyl(3,5-F2) = O=C(c1cc(F)cc(F)c1)*; NMeIle(3ξ) = CCC(C)[C@H](NC)C(=O)O; NMeQ = CN[C@@H](CCC(N)=O)C(=O)O; NMeL = CN[C@@H](CC(C)C)C(=O)O; Dab = NCC[C@H](N)C(=O)O; Butyryl = CCCC(=O)*; NHOH = ON*
How the values were obtained:
Format in all cases: biochemical
MMP-2 = MMP-2 (Homo sapiens (Human), UniProt P08253); test: MMP-2 inhibition assay (fluorimetric, DQ gelatin substrate); settings: recombinant MMP-2 (CHO cells) 85 ng/mL, DQ gelatin 50 μg/mL, 2 hours at room temperature, pH 7.6
Protocol: (§1) All the experiments were done in 1× reaction buffer, which was obtained from a 10× reaction buffer solution. The content of the 10× reaction buffer was: 50 mL of 0.5 M Tris-HCl, 1.5 M NaCl, 50 mM CaCl2 and 2 mM sodium azide at pH 7.6. To obtain the 1× reaction buffer 4 mL of the 10× reaction buffer were diluted in 36 mL of H2O.
Recombinant MMP-2 expressed in Chinese hamster ovary (CHO) cells was obtained from Merck-Millipore (catalog number PF023-5UG). DQ gelatin from pig skin fluorescein conjugated (MMP-2 substrate) was obtained from Life Technologies (catalog number E12055).
Preparation of the MMP-2 for the activity assay: MMP-2 was provided as a stock solution (0.1 mg/mL). The enzyme was diluted in 1× reaction buffer to a final concentration of 5 μg/mL.
(§2) Preparation of the DQ gelatin (substrate) solution for the activity assay: the solid form of the substrate was dissolved in water in order to obtain a stock solution of 1 mg/mL.
(§3) Procedure: The enzymatic assays were performed in 96-well microtiter plate, which allowed simultaneous monitoring of multiple reactions. For each reaction, 86.3 μL of 1× reaction buffer (pH 7.6), 1.7 μL of MMP-2 (final concentration 85 ng/mL) and 2 μL of the corresponding new compound were added to each well. A stock solution of new compound was prepared in DMSO (100 mM), and dilutions were prepared from this stock solution with DMSO. Finally, to the mixture contained in each well 10 μL of the substrate were added (final concentration 50 μg/mL). The reaction was incubated for 2 hours at room temperature in an orbital shaker (100 rpm).
(§4) The inhibitory activity of the new compound was measured fluorimetrically. The excitation and emission wavelengths were 483 and 525 nm, respectively.
(§5) Inhibitory activity at several concentration points (ranging from 100 pM to 200 μM MMP) were measured for each compound. The inhibitory activity on MMP-2 and MMP-9 was calculated according to eq 1. For each new compound, the fluorescence in the presence (a) and in the absence (b) of the corresponding MMP was measured. The maximum fluorescence (0% inhibitory activity) was obtained from a sample of the corresponding MMP in the absence of inhibitory compounds. To estimate the inhibitory potency of the novel compounds, activities were plotted against the log concentration of the compound, adjusting to a sigmoid curve using GraphPad Prism software, and the IC50 value, defined as the concentration of compound required to inhibit 50% of the corresponding MMP activity, was determined from resulting curve.
(§6) a corresponds to fluorescence intensity in the presence of substrate+test compound+MMP
(§7) b corresponds to the fluorescence intensity in the presence of substrate+tested compound
(§8) c corresponds to the fluorescence intensity in the presence of substrate+MMP
(§9) d corresponds to the fluorescence intensity of the presence of substrate

MMP-9 [1] = target: MMP-9 (Homo sapiens, UniProt P14780); test: MMP-9 inhibition assay (fluorimetric, DQ gelatin substrate); settings: recombinant MMP-9 (Merck-Millipore for examples 1 to 9 and comparative examples; Enzo for examples 10 to 16), DQ gelatin 50 μg/mL, 4 hours at room temperature, pH 7.6
Protocol: as §1
(§10) Recombinant MMP-9 expressed was obtained from Merck-Millipore (catalog number PF140-5UG, used in examples 1 to 9 and comparative examples) and Enzo (catalog number-SE360-0010, used in examples 10 to 16). DQ gelatin from pig skin fluorescein conjugated (MMP-9 substrate) was obtained from Life Technologies (catalog number E12055).
(§11) Preparation of the MMP-9 for the activity assay: MMP-9 was provided as a stock solution (0.1 mg/mL). The enzyme was diluted in 1× reaction buffer to a final concentration of 5 μg/mL.
as §2
as §3, with “reaction, 84.6” for “reaction, 86.3”, “7.6), […]” for “7.6), 1.7”, “of MMP-9” for “of MMP-2”, “for 4” for “for 2”
as §4, §5, §6, §7, §8, §9

MMP-1 = MMP-1 (Homo sapiens (Human), UniProt P03956); test: MMP-1 inhibition assay (fluorogenic peptide substrate); settings: recombinant MMP-1 5.52 nM, Mca-PLGL-Dpa-AR-NH2 10 μM, 4 hours at room temperature; tested at 1, 10, 100 and 200 μM
Protocol: as §1
Recombinant MMP-1 expressed in E. Coli was obtained from Enzo Life Sciences (catalog number BML-SE180). Mca-PLGL-Dpa-AR-NH2 (fluorogenic peptide substrate) was obtained from R&D Systems (catalog number ES001).
Preparation of the MMP-1 for the activity assay: MMP-1 was provided as a stock solution (0.55 mg/mL). The enzyme was diluted in 1× reaction buffer to a final concentration of 276 nM.
MMP-1 peptide substrate was provided as a stock solution in DMSO (6 mM). For the assay, the substrate was diluted 1× reaction buffer to a concentration of 100 μM.
Procedure: The enzymatic assays were performed in 96-well microtiter plate, which allowed simultaneous monitoring of multiple reactions. For each reaction, 86 μL of 1× reaction buffer (pH 7.6), 2 μL of MMP-1 (final concentration 5.52 nM) and 2 μL of the corresponding new compound were added to each well. A stock solution of the new compound was prepared in DMSO (100 mM), and dilutions were prepared from this stock solution with DMSO. Finally, to the mixture contained in each well 10 μL of the substrate were added (final concentration 10 μM). The reaction was incubated for 4 hours at room temperature in an orbital shaker (100 rpm).
The inhibitory activity of the new compound was measured fluorimetrically. The excitation and emission wavelengths were 320 and 405 nm, respectively.
Inhibitory activity at several concentration points (1, 10, 100 and 200 μM) were measured for each compound. The inhibitory activity on MMP-1, MMP-3 and MMP-7 was calculated according to eq 1 and The IC50 value was calculated as explained above for MMP-2 and MMP-9.

MMP-9 [2] = test: MMP-9 inhibition assay (fluorimetric, DQ gelatin substrate); settings: recombinant MMP-9 (Merck-Millipore for examples 1 to 9 and comparative examples; Enzo for examples 10 to 16), DQ gelatin 50 μg/mL, 4 hours at room temperature, pH 7.6
Protocol: as §1, §10, §11, §2
as §3, with “reaction, 84.6” for “reaction, 86.3”, “7.6), […]” for “7.6), 1.7”, “of MMP-9” for “of MMP-2”, “for 4” for “for 2”
as §4, §5, §6, §7, §8, §9

Chain of MMP-1 (P03956 100-269): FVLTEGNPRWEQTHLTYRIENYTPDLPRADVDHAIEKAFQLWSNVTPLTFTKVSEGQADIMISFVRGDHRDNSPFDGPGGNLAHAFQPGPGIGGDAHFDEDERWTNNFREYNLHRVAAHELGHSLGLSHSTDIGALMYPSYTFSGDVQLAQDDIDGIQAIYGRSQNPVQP
Chain of MMP-2 (P08253 110-660): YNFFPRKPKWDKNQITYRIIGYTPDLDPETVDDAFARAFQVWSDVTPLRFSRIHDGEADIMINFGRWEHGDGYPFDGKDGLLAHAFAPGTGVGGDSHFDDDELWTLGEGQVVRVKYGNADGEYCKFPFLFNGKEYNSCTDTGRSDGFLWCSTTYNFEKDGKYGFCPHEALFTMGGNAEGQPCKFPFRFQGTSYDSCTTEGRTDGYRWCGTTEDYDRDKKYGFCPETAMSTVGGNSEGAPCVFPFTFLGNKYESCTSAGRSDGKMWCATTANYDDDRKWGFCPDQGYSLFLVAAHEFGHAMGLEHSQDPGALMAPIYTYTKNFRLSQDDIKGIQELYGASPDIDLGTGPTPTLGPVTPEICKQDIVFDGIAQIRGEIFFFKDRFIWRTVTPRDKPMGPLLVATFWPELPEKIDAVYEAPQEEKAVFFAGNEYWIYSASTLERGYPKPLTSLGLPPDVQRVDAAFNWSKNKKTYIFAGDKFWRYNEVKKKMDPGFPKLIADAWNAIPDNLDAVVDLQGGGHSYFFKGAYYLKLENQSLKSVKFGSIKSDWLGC
Chain of MMP-9 (P14780 107-707 limits assumed): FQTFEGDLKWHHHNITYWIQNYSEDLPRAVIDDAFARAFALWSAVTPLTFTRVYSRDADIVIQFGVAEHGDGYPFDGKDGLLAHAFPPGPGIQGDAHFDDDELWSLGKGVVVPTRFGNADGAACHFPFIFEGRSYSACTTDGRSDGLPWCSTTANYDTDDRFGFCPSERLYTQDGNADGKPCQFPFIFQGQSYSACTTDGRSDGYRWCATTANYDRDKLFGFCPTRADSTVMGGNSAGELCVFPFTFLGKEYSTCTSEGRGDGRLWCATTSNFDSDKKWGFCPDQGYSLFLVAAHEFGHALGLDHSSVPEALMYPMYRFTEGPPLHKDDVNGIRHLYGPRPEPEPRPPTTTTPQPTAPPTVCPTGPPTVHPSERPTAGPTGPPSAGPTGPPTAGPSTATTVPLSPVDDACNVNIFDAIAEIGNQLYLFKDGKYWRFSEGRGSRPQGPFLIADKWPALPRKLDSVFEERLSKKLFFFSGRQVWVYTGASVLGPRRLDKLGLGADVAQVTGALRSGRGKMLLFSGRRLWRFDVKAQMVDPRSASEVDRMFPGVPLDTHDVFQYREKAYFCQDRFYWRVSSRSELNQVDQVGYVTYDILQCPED
Chain of MMP-9 (Homo sapiens, UniProt P14780) (P14780 107-707 limits assumed): as above

| Structure (SMILES) | IC50 (MMP-2) [nM] | IC50 (MMP-9 [1]) [nM] | IC50 (MMP-1) [µM] | IC50 (MMP-9 [2]) [µM] | MMP-1 IC50 (MMP-1) [nM] |
| --- | --- | --- | --- | --- | --- |
| CCCCCC(=O)N1CCC[C@H]1C(=O)N(C)[C@H](C(=O)N[C@@H](CCNC(=O)c1cc(F)cc(F)c1)C(=O)NO)C(C)CC (stereo partly drawn) [Example 3, (2S)—N-[(1S)-1-[[(1S)-3-[(3,5-difluorobenzoyl)amino]-1-(hydroxycarbamoyl)propyl]carbamoyl]-2-methyl-butyl]-1-hexanoyl-N-methyl-pyrrolidine-2-carboxamide] | 81 | 395 | 6.82 | – | – |
| CCCCCCCC(=O)N1CCC[C@H]1C(=O)N(C)[C@H](C(=O)N[C@@H](CCNC(=O)c1cc(F)cc(F)c1)C(=O)NO)C(C)CC (stereo partly drawn) [Example 6, (2S)—N-[(1S)-1-[[(1S)-3-[(3,5-difluorobenzoyl)amino]-1-(hydroxycarbamoyl)propyl]carbamoyl]-2-methyl-butyl]-N-methyl-1-octanoyl-pyrrolidine-2-carboxamide] | 400 | 733 | 25.6 | – | – |
| CCCC(=O)N(C)[C@@H](Cc1c[nH]c2ccccc12)C(=O)N(C)[C@@H](CC(C)C)C(=O)N1CCC[C@H]1C(=O)N(C)[C@H](C(=O)N[C@@H](CCNC(=O)c1cc(F)cc(F)c1)C(=O)NO)C(C)CC (stereo partly drawn) [Example 14, (2S)-1-[(2S)-2-[[(2S)-2-[butanoyl(methyl)amino]-3-(1H-indol-3-yl)propanoyl]-methyl-amino]-4-methyl-pentanoyl]-N-[(1S)-1-[[(1S)-3-[(3,5-difluorobenzoyl)amino]-1-(hydroxycarbamoyl)propyl]carbamoyl]-2-methyl-butyl]-N-methyl-pyrrolidine-2-carboxamide] (Butyryl-[NMeW][NMeL]P[NMeIle(3ξ)][Dab](Benzoyl(3,5-F2))-{NHOH}) | 116 | – | 6.07 | 0.046 | – |
| CCC(C)[C@@H](C(=O)N[C@@H](CCNC(=O)c1ccc(F)cc1)C(=O)NO)N(C)C(=O)[C@@H]1CCCN1C(C)=O (stereo partly drawn) [Example 1, (2S)-1-acetyl-N-[(1S)-1-[[(1S)-3-[(4-fluorobenzoyl)amino]-1-(hydroxycarbamoyl)propyl]carbamoyl]-2-methyl-butyl]-N-methyl-pyrrolidine-2-carboxamide] | 202 | – | – | 1.26 | <1000 |
| CCC(C)[C@@H](C(=O)N[C@@H](CCNC(=O)c1cc(F)cc(F)c1)C(=O)NO)N(C)C(=O)[C@@H]1CCCN1C(C)=O (stereo partly drawn) [Example 2, (2S)-1-acetyl-N-[(1S)-1-[[(1S)-3-[(3,5-difluorobenzoyl)amino]-1-(hydroxycarbamoyl)propyl]carbamoyl]-2-methyl-butyl]-N-methyl-pyrrolidine-2-carboxamide] | 242 | – | 4.94 | 0.301 | – |
| CCC(C)[C@@H](C(=O)N[C@@H](CCNC(=O)c1cc(F)cc(F)c1)C(=O)NO)N(C)C(=O)[C@@H]1CCCN1C(=O)CCCOc1ccccc1 (stereo partly drawn) [Example 9, (2S)—N-[(1S)-1-[[(1S)-3-[(3,5-difluorobenzoyl)amino]-1-(hydroxycarbamoyl)propyl]carbamoyl]-2-methyl-butyl]-N-methyl-1-(4-phenoxybutanoyl)pyrrolidine-2-carboxamide] | 362 | – | 11.4 | 0.506 | – |
| CCC(C)[C@@H](C(=O)N[C@@H](CCNC(=O)c1cc(F)cc(F)c1)C(=O)NO)N(C)C(=O)[C@@H]1CCCN1C(=O)CC(C)C (stereo partly drawn) [Example 5, (2S)—N-[(1S)-1-[[(1S)-3-[(3,5-difluorobenzoyl)amino]-1-(hydroxycarbamoyl)propyl]carbamoyl]-2-methyl-butyl]-N-methyl-1-(3-methylbutanoyl)pyrrolidine-2-carboxamide] | 116 | – | 6.68 | 0.601 | – |
| CCC(C)[C@@H](C(=O)N[C@@H](CCNC(=O)c1cc(F)cc(F)c1)C(=O)NO)N(C)C(=O)[C@@H]1CCCN1C(=O)CCN(C)C(C)=O (stereo partly drawn) [Example 13, (2S)-1-[3-[acetyl(methyl)amino]propanoyl]-N-[(1S)-1-[[(1S)-3-[(3,5-difluorobenzoyl)amino]-1-(hydroxycarbamoyl)propyl]carbamoyl]-2-methyl-butyl]-N-methyl-pyrrolidine-2-carboxamide] | 1150 | – | 200 | 0.339 | – |
| CCC(C)[C@@H](C(=O)N[C@@H](CCNC(=O)c1cc(F)cc(F)c1)C(=O)NO)N(C)C(=O)[C@@H]1CC(F)(F)CN1C(=O)CCCOc1ccccc1 (stereo partly drawn) [Example 10, (2S)—N-[(1S)-1-[[(1S)-3-[(3,5-difluorobenzoyl)amino]-1-(hydroxycarbamoyl)propyl]carbamoyl]-2-methyl-butyl]-4,4-difluoro-N-methyl-1-(4-phenoxybutanoyl)pyrrolidine-2-carboxamide] | 37 | – | 6.61 | 0.223 | – |
| CC(=O)N1CCC[C@H]1C(=O)N(C)[C@@H](CCC(N)=O)C(=O)N[C@@H](Cc1c[nH]c2ccccc12)C(=O)NO [Example C20, (2S)-2-[[(2S)-1-acetylpyrrolidine-2-carbonyl]-methyl-amino]-N-[(1S)-2-(hydroxyamino)-1-(1H-indol-3-ylmethyl)-2-oxo-ethyl]pentanediamide, reference compound] (Ac-Pro-[NMeQ]-Trp-{NHOH}) | 53000 | – | > 2000 | 22 | – |
| CC(=O)N1CCC[C@H]1C(=O)N[C@@H](CCC(N)=O)C(=O)N[C@@H](Cc1c[nH]c2ccccc12)C(=O)NO [Example C17, (2S)-2-[[(2S)-1-acetylpyrrolidine-2-carbonyl)amino]-N-[(1S)-2-(hydroxyamino)-1-(1H-indol-3-ylmethyl)-2-oxo-ethyl]pentanediamide, reference compound] (Ac-Pro-Gln-Trp-{NHOH}) | 110000 | – | 6.1 | 3500 | – |
